These compounds were tested against PI3Kα E545K (Homo sapiens, UniProt P42336, E545K) (assay: PI3Kα E545K mutant in vitro cell based assay, MDA-MB-361 cells). Details: MDA-MB-361 cell line, 0% FBS, no insulin, 3 hours treatment.
Sequence of PI3Kα E545K (P42336 whole entry E545K): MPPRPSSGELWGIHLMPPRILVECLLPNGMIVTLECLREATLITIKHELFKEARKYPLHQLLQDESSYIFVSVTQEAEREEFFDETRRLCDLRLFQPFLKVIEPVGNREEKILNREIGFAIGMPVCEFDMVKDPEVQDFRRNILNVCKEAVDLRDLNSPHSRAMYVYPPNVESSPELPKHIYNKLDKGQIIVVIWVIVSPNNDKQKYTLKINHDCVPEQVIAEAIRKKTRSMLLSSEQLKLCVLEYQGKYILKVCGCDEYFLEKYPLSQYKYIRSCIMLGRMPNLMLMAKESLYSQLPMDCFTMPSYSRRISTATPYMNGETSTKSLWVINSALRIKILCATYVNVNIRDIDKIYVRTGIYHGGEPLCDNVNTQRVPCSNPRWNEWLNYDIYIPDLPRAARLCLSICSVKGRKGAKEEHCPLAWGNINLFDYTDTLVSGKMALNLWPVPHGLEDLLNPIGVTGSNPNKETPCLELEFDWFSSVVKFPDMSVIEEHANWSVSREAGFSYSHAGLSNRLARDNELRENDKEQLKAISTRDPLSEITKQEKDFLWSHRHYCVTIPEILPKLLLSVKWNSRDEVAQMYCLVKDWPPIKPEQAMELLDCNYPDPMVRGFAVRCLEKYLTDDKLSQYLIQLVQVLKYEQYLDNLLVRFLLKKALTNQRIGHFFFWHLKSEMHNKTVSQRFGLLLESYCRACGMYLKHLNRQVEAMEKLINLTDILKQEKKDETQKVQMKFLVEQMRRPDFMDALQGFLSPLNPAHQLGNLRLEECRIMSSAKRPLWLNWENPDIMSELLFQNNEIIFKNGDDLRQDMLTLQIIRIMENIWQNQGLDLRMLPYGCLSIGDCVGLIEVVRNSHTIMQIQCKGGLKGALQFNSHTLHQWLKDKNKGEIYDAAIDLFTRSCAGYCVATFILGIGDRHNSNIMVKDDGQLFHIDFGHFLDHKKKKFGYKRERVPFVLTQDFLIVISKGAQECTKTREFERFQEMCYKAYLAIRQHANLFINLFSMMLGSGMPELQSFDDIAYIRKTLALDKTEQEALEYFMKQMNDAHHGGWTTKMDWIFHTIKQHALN
Sequence of PI3Kα E545K (P27986 whole entry partner): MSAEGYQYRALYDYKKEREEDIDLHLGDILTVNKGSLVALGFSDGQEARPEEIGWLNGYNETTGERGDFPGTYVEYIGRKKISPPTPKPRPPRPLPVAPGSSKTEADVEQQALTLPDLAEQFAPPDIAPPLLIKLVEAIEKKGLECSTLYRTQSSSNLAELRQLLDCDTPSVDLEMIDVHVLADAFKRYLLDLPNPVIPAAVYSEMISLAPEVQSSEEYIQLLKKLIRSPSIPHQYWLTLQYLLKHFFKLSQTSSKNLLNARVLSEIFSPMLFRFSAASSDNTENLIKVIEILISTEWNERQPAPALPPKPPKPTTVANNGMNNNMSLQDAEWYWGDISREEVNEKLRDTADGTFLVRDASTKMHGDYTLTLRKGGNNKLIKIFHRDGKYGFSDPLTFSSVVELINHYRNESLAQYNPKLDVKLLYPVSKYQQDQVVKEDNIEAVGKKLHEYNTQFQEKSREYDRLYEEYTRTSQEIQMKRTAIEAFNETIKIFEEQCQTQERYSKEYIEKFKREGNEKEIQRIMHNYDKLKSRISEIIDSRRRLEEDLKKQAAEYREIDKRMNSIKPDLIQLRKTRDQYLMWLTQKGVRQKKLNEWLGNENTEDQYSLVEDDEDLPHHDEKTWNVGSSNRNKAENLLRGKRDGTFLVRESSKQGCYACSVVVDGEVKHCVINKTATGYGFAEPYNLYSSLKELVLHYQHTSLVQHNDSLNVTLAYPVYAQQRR
Design: MDA-MB-361 (ATCC-HTB-27) cell line (PI3Kα E545K); host or cells: MDA-MB-361
In short: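 MDA-MB-361 cells (PI3Kα E545K) seeded in serum-free MEM assay medium without insulin, attached overnight, then treated 3 h with compound (10-point 1:3 series, 0.3% DMSO). AlphaLISA SureFire readout of lysates. IC50 by 4-parameter fit, normalized to DMSO (max) and 1 μM GDC-0032 (min).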
`CC(=O)Nc1ccc(-c2oc3c([C@@H](C)Oc4ccc(Cl)nc4C(N)=O)cc(C)cc3c(=O)c2C)cc1` [Example 58C, 3-[(1R)-1-[2-(4-Acetamidophenyl)-3,6-dimethyl-4-oxo-chromen-8-yl]ethoxy]-6-chloro-pyridine-2-carboxamide] was tested, and the IC50 was < 500 nM.
For `Cc1cc([C@@H](C)Oc2ccc(Cl)nc2NS(C)(=O)=O)c2oc(-c3cnn(C)c3)c(C)c(=O)c2c1` [Example 149A, N-[6-Chloro-3-[(1R)-1-[3,6-dimethyl-2-(1-methylpyrazol-4-yl)-4-oxo-chromen-8-yl]ethoxy]-2-pyridyl]methanesulfonamide], the IC50 was < 500 nM.
For `Cc1cc([C@@H](C)Oc2ccc(Cl)nc2-c2noc(=O)[nH]2)c2oc(-c3ccc4c(c3)OC(F)(F)O4)c(C)c(=O)c2c1` [Example 46A, 3-[6-Chloro-3-[(1R)-1-[2-(2,2-difluoro-1,3-benzodioxol-5-yl)-3,6-dimethyl-4-oxo-chromen-8-yl]ethoxy]-2-pyridyl]-4H-1,2,4-oxadiazol-5-one], the IC50 was < 500 nM.
With `Cc1cc([C@@H](C)Oc2ccc(Br)nc2C(N)=O)c2oc(-c3ccc4nn(C)cc4c3)c(C)c(=O)c2c1` [Example 81C, 6-Bromo-3-[(1R)-1-[3,6-dimethyl-2-(2-methylindazol-5-yl)-4-oxo-chromen-8-yl]ethoxy]pyridine-2-carboxamide] the IC50 was < 500 nM.
For `Cc1cc([C@@H](C)Oc2ccc(Cl)nc2C(N)=O)c2oc(-c3cc(F)c4nn(C)cc4c3)c(C)c(=O)c2c1` [Example 17B, 6-Chloro-3-[(1R)-1-[2-(7-fluoro-2-methyl-indazol-5-yl)-3,6-dimethyl-4-oxo-chromen-8-yl]ethoxy]pyridine-2-carboxamide], the IC50 was < 500 nM.
